Experimental data as given in patent publication US5747521A (priority 1992, dated 1998).

Tested on: not listed separately
Test: in vivo
Conditions: mouse, ip, into the abdominal cavity, single dose, fasted mice, mortality up to 72 hours, read-out: LD50 Abdominal administration

Compound `CC1=C(CC(=O)O)c2cc(F)ccc2/C1=C\c1ccc([S+](C)[O-])cc1` (stereo not shown) [Sulindac, reference compound] has an LD50 at 72 h of 235 mg/kg.

Same assay, conditions: mouse, ip, read-out: LD50 Abdominal administration

In order of falling LD50 at 72 h:
1. COc1ccc2c(c1)c(CC(=O)OCC1CCCCO1)c(C)n2C(=O)C=Cc1ccccc1 (stereo not shown) [Compound 3, 0-(2-tetrahydropyranilmethyl)-N-cinnamoyl-5-methoxy-2methyl-3-indoleacetate]  1150 mg/kg
2. COc1ccc2c(c1)c(CC(=O)OC(C)C(C)O)c(C)n2C(=O)C=Cc1ccccc1 (stereo not shown) [Compound 2, 0-(3-hydroxy-2-buthanyl)-cinnamoyl-5-methoxy-2-methyl-3-indoleacetate]  570 mg/kg
3. COc1ccc2c(c1)c(CC(=O)OCC=CCO)c(C)n2C(=O)C=Cc1ccccc1 [Compound 1, 0-(4-hydroxy-2-butene)-N-cinnamoyl-5-methoxy-2-methyl-3-indoleacetate]  520 mg/kg

Same assay, conditions: mouse, oral, single dose, fasted mice, mortality up to 72 hours, read-out: LD50 Oral administration

In order of rising LD50 at 72 h:
1. CC1=C(CC(=O)O)c2cc(F)ccc2/C1=C\c1ccc([S+](C)[O-])cc1 (stereo not shown) [Sulindac, reference compound]  980 mg/kg
2. COc1ccc2c(c1)c(CC(=O)OCC=CCO)c(C)n2C(=O)C=Cc1ccccc1 [Compound 1, 0-(4-hydroxy-2-butene)-N-cinnamoyl-5-methoxy-2-methyl-3-indoleacetate]  2000 mg/kg
3. COc1ccc2c(c1)c(CC(=O)OC(C)C(C)O)c(C)n2C(=O)C=Cc1ccccc1 (stereo not shown) [Compound 2, 0-(3-hydroxy-2-buthanyl)-cinnamoyl-5-methoxy-2-methyl-3-indoleacetate]  4200 mg/kg
4. COc1ccc2c(c1)c(CC(=O)OCC1CCCCO1)c(C)n2C(=O)C=Cc1ccccc1 (stereo not shown) [Compound 3, 0-(2-tetrahydropyranilmethyl)-N-cinnamoyl-5-methoxy-2methyl-3-indoleacetate]  6000 mg/kg

Tested on: carrageenan induced hind-paw edema
Test: Anti-inflammatory activity test (carrageenan induced hind-paw edema method, Winter)
Assay type: in vivo, male rats
Conditions: 100 mg/kg p.o.; 1% carrageenan one hour after dosing; edema measured 3 hours and 5 hours thereafter; significance (p.v.) 0.01
Experimental: The volume of legs was measured before a solution of a drug was administered to a group of 8 mature male rats (weight 170±20 g) and 0.1 ml /rat of 1% carrageenan physiological saline solution was injected subcutaneously into the sole of hind of leg of rats one hour after the oral administration and edema thereby caused was measured 3 hours and 5 hours thereafter. In this way, a rate of edema formation and a rate of inhibition were calculated.

In order of falling “A rate of inhibition” value:
1. COc1ccc2c(c1)c(CC(=O)O)c(C)n2C(=O)C=Cc1ccccc1 [Cinmetacin, N-cinnamoyl-2-methyl-5-methoxy-3-indoleacetic acid, reference compound]  65%
2. COc1ccc2c(c1)c(CC(=O)OCC=CCO)c(C)n2C(=O)C=Cc1ccccc1 [Compound 1, 0-(4-hydroxy-2-butene)-N-cinnamoyl-5-methoxy-2-methyl-3-indoleacetate]  57%
3. COc1ccc2c(c1)c(CC(=O)OC(C)C(C)O)c(C)n2C(=O)C=Cc1ccccc1 (stereo not shown) [Compound 2, 0-(3-hydroxy-2-buthanyl)-cinnamoyl-5-methoxy-2-methyl-3-indoleacetate]  52%
4. COc1ccc2c(c1)c(CC(=O)OCC1CCCCO1)c(C)n2C(=O)C=Cc1ccccc1 (stereo not shown) [Compound 3, 0-(2-tetrahydropyranilmethyl)-N-cinnamoyl-5-methoxy-2methyl-3-indoleacetate]  43%

Same assay, conditions: conclusion in words from Table 2

In the case of `COc1ccc2c(c1)c(CC(=O)OCC=CCO)c(C)n2C(=O)C=Cc1ccccc1` [Compound 1, 0-(4-hydroxy-2-butene)-N-cinnamoyl-5-methoxy-2-methyl-3-indoleacetate], the “edema inhibition effect / anti-inflammatory action” value is reported as “almost similar to the widely known cinmetacin”.
With `COc1ccc2c(c1)c(CC(=O)OC(C)C(C)O)c(C)n2C(=O)C=Cc1ccccc1` (stereo not shown) [Compound 2, 0-(3-hydroxy-2-buthanyl)-cinnamoyl-5-methoxy-2-methyl-3-indoleacetate] the “edema inhibition effect / anti-inflammatory action” value was “almost similar to the widely known cinmetacin”.
In the case of `COc1ccc2c(c1)c(CC(=O)OCC1CCCCO1)c(C)n2C(=O)C=Cc1ccccc1` (stereo not shown) [Compound 3, 0-(2-tetrahydropyranilmethyl)-N-cinnamoyl-5-methoxy-2methyl-3-indoleacetate], the “edema inhibition effect / anti-inflammatory action” value is reported as “significant anti-inflammatory action”.

Tested on: number of stretchings (anti-writhing)
Test: Analgesic activity test (anti-writhing method by Whittle)
Assay type: in vivo, male ICR-mice
Conditions: Mus musculus, 1 h; oral; stretchings counted in 10 minutes, 60 minutes after dosing; read-out: ED50 Oral administration
Experimental: After the lapse of 60 minutes, the number of stretchings in the course of 10 minutes was measured as an index to a algesic sense.

In order of rising ED50:
1. COc1ccc2c(c1)c(CC(=O)OC(C)C(C)O)c(C)n2C(=O)C=Cc1ccccc1 (stereo not shown) [Compound 2, 0-(3-hydroxy-2-buthanyl)-cinnamoyl-5-methoxy-2-methyl-3-indoleacetate]  31 mg/kg
2. COc1ccc2c(c1)c(CC(=O)OCC=CCO)c(C)n2C(=O)C=Cc1ccccc1 [Compound 1, 0-(4-hydroxy-2-butene)-N-cinnamoyl-5-methoxy-2-methyl-3-indoleacetate]  70 mg/kg
3. COc1ccc2c(c1)c(CC(=O)OCC1CCCCO1)c(C)n2C(=O)C=Cc1ccccc1 (stereo not shown) [Compound 3, 0-(2-tetrahydropyranilmethyl)-N-cinnamoyl-5-methoxy-2methyl-3-indoleacetate]  95 mg/kg

Same assay, conditions: Mus musculus, po, 1 h, read-out: ED50 Oral administration

In order of rising ED50:
1. COc1ccc2c(c1)c(CC(=O)O)c(C)n2C(=O)C=Cc1ccccc1 [Cinmetacin, N-cinnamoyl-2-methyl-5-methoxy-3-indoleacetic acid, reference compound]  36 mg/kg
2. CC1=C(CC(=O)O)c2cc(F)ccc2/C1=C\c1ccc([S+](C)[O-])cc1 (stereo not shown) [Sulindac, reference compound]  60 mg/kg

Same assay, conditions: conclusion in words from Table 3

With `COc1ccc2c(c1)c(CC(=O)OCC=CCO)c(C)n2C(=O)C=Cc1ccccc1` [Compound 1, 0-(4-hydroxy-2-butene)-N-cinnamoyl-5-methoxy-2-methyl-3-indoleacetate] the “analgesic activity / analgesic action” value was “significant analgesic action”.
With `COc1ccc2c(c1)c(CC(=O)OC(C)C(C)O)c(C)n2C(=O)C=Cc1ccccc1` (stereo not shown) [Compound 2, 0-(3-hydroxy-2-buthanyl)-cinnamoyl-5-methoxy-2-methyl-3-indoleacetate] the “analgesic activity / analgesic action” value was “analgesic activity equal to cinmetacin”.
With `COc1ccc2c(c1)c(CC(=O)OCC1CCCCO1)c(C)n2C(=O)C=Cc1ccccc1` (stereo not shown) [Compound 3, 0-(2-tetrahydropyranilmethyl)-N-cinnamoyl-5-methoxy-2methyl-3-indoleacetate] the “analgesic activity / analgesic action” value was “significant analgesic action”.

Tested on: not listed separately
Test: in vivo
Parameters: species or system male SD-rats
Conditions: rat, po
Experimental: A solution of a drug was administered through the mouths of a group of 8 mature male SD-rats (weight 130±20 g) performing a fast for 24 hours. […] Capacity which causes 50% bleeding (UD50) was calculated according to the Ritchfield and Wilcoxon method (J. Pahrmacol., 69, 99, 1949) with bleeding more than 1 mm in diameter as positivity.

In order of rising TD50 at 4 h:
1. CC1=C(CC(=O)O)c2cc(F)ccc2/C1=C\c1ccc([S+](C)[O-])cc1 (stereo not shown) [Sulindac, reference compound]  14 mg/kg
2. COc1ccc2c(c1)c(CC(=O)O)c(C)n2C(=O)C=Cc1ccccc1 [Cinmetacin, N-cinnamoyl-2-methyl-5-methoxy-3-indoleacetic acid, reference compound]  18 mg/kg
3. COc1ccc2c(c1)c(CC(=O)OCC=CCO)c(C)n2C(=O)C=Cc1ccccc1 [Compound 1, 0-(4-hydroxy-2-butene)-N-cinnamoyl-5-methoxy-2-methyl-3-indoleacetate]  100 mg/kg
4. COc1ccc2c(c1)c(CC(=O)OC(C)C(C)O)c(C)n2C(=O)C=Cc1ccccc1 (stereo not shown) [Compound 2, 0-(3-hydroxy-2-buthanyl)-cinnamoyl-5-methoxy-2-methyl-3-indoleacetate]  175 mg/kg
5. COc1ccc2c(c1)c(CC(=O)OCC1CCCCO1)c(C)n2C(=O)C=Cc1ccccc1 (stereo not shown) [Compound 3, 0-(2-tetrahydropyranilmethyl)-N-cinnamoyl-5-methoxy-2methyl-3-indoleacetate]  230 mg/kg
